In PMC3765866, “Identification of novel PTPRQ phosphatase inhibitors based on the virtual screening with docking simulations” (Theoretical Biology & Medical Modelling, 2013):
Read-outs that look alike come from different tables or passages of the source.

Assays:
Format in all cases: biochemical
PTPRQ [1] = biological target: T1, PTPRQ (Homo sapiens, UniProt Q9UMZ3); test: PTPRQ enzyme inhibition assay monitoring hydrolysis of pNPP; details: for inhibition at 100 µM: inhibitor 100 μM, duplicates
T1 construct: The catalytic domain of PTPRQ (PTPRQ-C, residues 2661–2948) was subcloned into pET28a; His tag; made in house; host or cells: Escherichia coli BL21 (DE3)
T1 sequence (Q9UMZ3 2015-2302 limits assumed): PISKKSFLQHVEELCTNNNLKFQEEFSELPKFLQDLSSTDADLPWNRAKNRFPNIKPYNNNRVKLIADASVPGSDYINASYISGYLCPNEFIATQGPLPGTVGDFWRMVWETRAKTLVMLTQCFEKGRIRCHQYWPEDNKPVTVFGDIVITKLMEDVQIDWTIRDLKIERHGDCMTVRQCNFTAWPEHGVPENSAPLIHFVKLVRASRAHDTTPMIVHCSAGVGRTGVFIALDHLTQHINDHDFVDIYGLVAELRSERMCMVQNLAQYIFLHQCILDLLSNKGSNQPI
Method: The catalytic domain of PTPRQ (PTPRQ-C, residues 2661–2948) was subcloned into pET28a and overexpressed using Escherichia coli BL21 (DE3) strain. Cells were grown at 291 K after induction with 0.1 mM IPTG for 20 hours. His-tagged PTPRQ-C was purified by nickel-affinity chromatography. 150 compounds selected from the precedent virtual screening were evaluated for their in vitro inhibitory activity against the recombinant human PTPRQ. Initial inhibitor screening was performed by monitoring the extent of hydrolysis of p-Nitrophenyl Phosphate (pNPP) with a […] assay. The purified PTPRQ-C (1.5 μM), pNPP (5 mM), and a candidate inhibitor were incubated in the reaction mixture containing 50 mM Bis-Tris (pH 6.0), 2 mM dithiothreitol for 60 minutes. This enzymatic reaction was stopped with the addition of sodium hydroxide (0.5 M). The phosphatase activities were then checked by the absorbance changes due to the hydrolysis of the substrate at 405 nm. IC50 values of the inhibitors were determined from direct regression curve analysis.

PTPRQ [2] = biological target: T1, PTPRQ; test: Inhibition of hydrolysis of PI(3,4,5)P3 by PTPRQ (malachite green); details: 1.5 μM PTPRQ-C, 300 μM PI(3,4,5)P3, 100 μM inhibitor
Method: Six PTPRQ inhibitors identified under the above reaction conditions were further investigated using PI(3,4,5)P3 as the substrate (Cayman Chemical). The enzymatic activity of PTPRQ was measured in 80 μL reaction mixture containing 50 mM Tris–HCl (pH 6.0), 10 mM dithiothreitol, 300 μM PI(3,4,5)P3, 100 μM inhibitor, and 1.5 μM of the purified catalytic domain of PTPRQ. The mixture was incubated for 60 minutes at 310 K, and the enzymatic reaction was stopped by the addition of 20 μL of malachite green/ammonium molybdate reagent (Bioassay systems). The absorbance was measured at 650 nm using a plate reader.

[3] = biological target: T2, PTP receptor type O (PTPRO) (Homo sapiens, UniProt Q16827); test: Selectivity inhibition assay against PTPRO; details: read-out: % inhibition at 100 μM for PTPRO
T2 sequence (Q16827 30-1216): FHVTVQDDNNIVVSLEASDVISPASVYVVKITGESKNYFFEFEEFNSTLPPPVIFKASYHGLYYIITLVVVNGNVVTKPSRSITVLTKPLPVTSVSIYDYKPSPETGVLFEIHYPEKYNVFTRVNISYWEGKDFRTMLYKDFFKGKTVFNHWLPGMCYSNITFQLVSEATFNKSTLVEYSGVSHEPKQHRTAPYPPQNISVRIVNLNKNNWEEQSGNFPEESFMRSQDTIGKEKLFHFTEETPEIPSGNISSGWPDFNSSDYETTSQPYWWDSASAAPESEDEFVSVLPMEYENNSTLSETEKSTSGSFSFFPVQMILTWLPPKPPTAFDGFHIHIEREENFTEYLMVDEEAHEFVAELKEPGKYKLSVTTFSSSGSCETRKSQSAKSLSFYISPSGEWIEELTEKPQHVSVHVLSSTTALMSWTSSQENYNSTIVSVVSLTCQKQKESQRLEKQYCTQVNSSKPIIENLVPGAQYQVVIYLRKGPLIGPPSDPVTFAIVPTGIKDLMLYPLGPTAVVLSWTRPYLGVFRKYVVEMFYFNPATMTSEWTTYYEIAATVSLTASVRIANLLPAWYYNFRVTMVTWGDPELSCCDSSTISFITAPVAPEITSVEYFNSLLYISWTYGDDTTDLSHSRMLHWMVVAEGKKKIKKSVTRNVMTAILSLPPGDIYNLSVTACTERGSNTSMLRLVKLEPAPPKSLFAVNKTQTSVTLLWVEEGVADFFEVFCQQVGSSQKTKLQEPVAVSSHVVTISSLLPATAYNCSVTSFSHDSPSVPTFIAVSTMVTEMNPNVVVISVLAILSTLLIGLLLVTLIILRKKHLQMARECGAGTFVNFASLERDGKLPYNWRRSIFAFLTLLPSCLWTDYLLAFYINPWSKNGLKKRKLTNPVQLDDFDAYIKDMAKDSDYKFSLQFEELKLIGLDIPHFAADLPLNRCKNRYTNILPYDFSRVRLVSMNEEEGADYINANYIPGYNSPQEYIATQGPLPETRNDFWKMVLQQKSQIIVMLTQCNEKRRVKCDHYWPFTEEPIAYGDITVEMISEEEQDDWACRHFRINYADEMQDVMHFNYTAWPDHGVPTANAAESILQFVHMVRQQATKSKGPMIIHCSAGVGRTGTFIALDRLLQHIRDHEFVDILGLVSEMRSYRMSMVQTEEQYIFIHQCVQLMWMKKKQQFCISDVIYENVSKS
Method: Because the selectivity has been one of the most important issues in the development of phosphatase inhibitors, we compared the inhibitory activities of 1–6 for PTPRQ to those for its homologous protein, PTP receptor type O (PTPRO). These inhibition assays for selectivity were done in duplicates at the inhibitor concentration of 100 μM. […] The simultaneous inhibitions of PTPRQ and PTPRO by 1–6 are actually not surprising because they share a highly conserved catalytic module. To obtain the specific inhibitors for PTPRQ, therefore, it seems that some chemical groups should be added to 1–6 in such a way that the resulting derivatives can be stabilized not only in the active site but also in other peripheral binding pockets.

[4] = pNPP 5 mM substrate, 1.5 μM PTPRQ-C, pH 6.0, 60 minutes, read-out: IC50 against PTPRQ

SMILES: CCOC(=O)Cn1cc(/C=C2/C(=O)NC(=O)N(c3cc(C)cc(C)c3)C2=O)c2ccccc21 [Compound 1]
- IC50 (PTPRQ [1]): 29.9 µM
- inhibition at 100 µM (PTPRQ [1]): 71.1 ± 0.8%
- inhibitory activity against the hydrolysis of PI(3,4,5)P3 by PTPRQ (PTPRQ [2]): significant inhibitory activity
- inhibition at 100 µM [3]: 94.4 ± 0.5%

SMILES: COc1cccc(-c2nn(-c3ccccc3)cc2/C=C2\SC(=S)N(CCC(=O)O)C2=O)c1 [Compound 4]
- inhibition at 100 µM (PTPRQ [1]): 82.6 ± 0.2%
- IC50 (PTPRQ [1]; [4]): 44.8 µM
- inhibition at 100 µM ([3]; inhibitor 100 μM, duplicates): 95 ± 3.5%

SMILES: O=C1NC(=S)S/C1=C\c1cn(-c2ccccc2)nc1-c1ccccc1 [Compound 2]
- inhibition at 100 µM (PTPRQ [1]): 57.7 ± 0.4%
- IC50 (PTPRQ [1]; [4]): 85.7 µM
- inhibitory activity against the hydrolysis of PI(3,4,5)P3 by PTPRQ (PTPRQ [2]): significant inhibitory activity
- inhibition at 100 µM ([3]; inhibitor 100 μM, duplicates): 94.2 ± 1.5%

SMILES: O=C(O)CCN1C(=O)/C(=C\c2cccc(Oc3ccccc3)c2)SC1=S [Compound 5]
- inhibition at 100 µM (PTPRQ [1]): 62.5 ± 1.6%
- IC50 (PTPRQ [1]; [4]): 65.3 µM
- inhibition at 100 µM ([3]; inhibitor 100 μM, duplicates): 95 ± 0.8%

SMILES: CN1C(=O)/C(=C/c2ccc(OCc3cccc([N+](=O)[O-])c3)cc2)S/C1=N/c1cccc(C(=O)O)c1 [Compound 3]
- inhibition at 100 µM (PTPRQ [1]): 50.9 ± 2.2%
- IC50 (PTPRQ [1]; [4]): 63.8 µM
- inhibitory activity against the hydrolysis of PI(3,4,5)P3 by PTPRQ (PTPRQ [2]): effect of reducing PTPRQ activity
- inhibition at 100 µM ([3]; inhibitor 100 μM, duplicates): 48.7 ± 2.1%

SMILES: COC(=O)c1cccc(-c2ccc(/C=C3\C(=O)N(c4cccc(C(=O)O)c4)N=C3C)o2)c1 [Compound 6]
- inhibition at 100 µM (PTPRQ [1]): 57 ± 2.1%
- IC50 (PTPRQ [1]; [4]): 73.1 µM
- inhibitory activity against the hydrolysis of PI(3,4,5)P3 by PTPRQ (PTPRQ [2]): effect of reducing PTPRQ activity
- inhibition at 100 µM ([3]; inhibitor 100 μM, duplicates): 81.2 ± 0.9%
